Measured values reported in patent US10800791B2, “Triazole ACC inhibitors and uses thereof” (Gilead Apollo, LLC, priority 2015, dated 2020).
In brackets after ≈: the same amount, converted by molar mass. Where two headings read alike, the source gives them in different places.

Legend:
[1] = system: C. parapsilosis; test: Antifungal Activity Assay (broth microtiter MIC), C. parapsilosis; type: cell-based, Candida parapsilosis; settings: Lodderomyces parapsilosis, ATCC22019, 48 h
Procedure, shortened: (§1)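 MIC read by eye at 48 h, comparing challenged wells with the growth control. Yeasts grown overnight on Sabouraud dextrose agar at 35° C, suspended in RPMI 1640+MOPS and added at 2.5×10^3 CFU/mL final, following CLSI M27-A3.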

[2] = system: Phytophthora capsici (Pc); test: Growth inhibition assay of fungal pathogens, Pc; type: cell-based; settings: 48 h
Procedure, shortened: (§2)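 Spores from sub-cultured plates were diluted in 17% V8 liquid medium and exposed to compound from DMSO stocks at final concentrations of 50, 10 and 2 ppm or 2, 0.4 and 0.08 ppm. OD600 and visual ratings at 48 h were compared with the 2% DMSO control to give percent growth inhibition.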

[3] = system: Rhizoctonia solani (Rs); test: Growth inhibition assay of fungal pathogens, Rs; type: cell-based; settings: 48 h
[4] = biological target: human (hACC2) (Homo sapiens, UniProt O00763); test: In vitro ACC inhibition assay (ADP-Glo), hACC2; type: biochemical; settings: 5 nM ACC2, 20 μM ATP, 20 μM acetyl-CoA
Protocol: The detailed procedure is as follows. […] 10 μL ADP glo reagent was added. […] 20 μL kinase detection reagent was added.

[5] = system: C. krusei; test: Antifungal Activity Assay (broth microtiter MIC), C. krusei; type: cell-based, Candida krusei; settings: Pichia kudriavzevii, ATCC6258, 48 h
Procedure, shortened: as §1

[6] = system: Botrtyis cinerea (Bc); test: Growth inhibition assay of fungal pathogens, Bc; type: cell-based; settings: 48 h
Procedure, shortened: as §2

[7] = system: Fusarium virguliforme (Fv); test: Growth inhibition assay of fungal pathogens, Fv; type: cell-based; settings: 48 h
Procedure, shortened: as §2

[8] = system: Septoria tritici (St); test: Growth inhibition assay of fungal pathogens, St; type: cell-based; settings: Zymoseptoria tritici, 48 h
Procedure, shortened: as §2

[9] = system: Fusarium moniliforme (Fm); test: Growth inhibition assay of fungal pathogens, Fm; type: cell-based; settings: for IC90: Fusarium verticillioides, 48 h, read-out: Concentration at 90% Inhibition Fm
Procedure, shortened: as §2

[10] = Table 3a, ATCC 22019, 3 replicates, MIC recorded at 48 h, read-out: MIC, C. parapsilosis ATCC 22019
[11] = Table 3b (additional results), ATCC 22019, 3 replicates, MIC recorded at 48 h, read-out: MIC, C. parapsilosis ATCC 22019
[12] = growth inhibition at 48 hours vs 2% DMSO control, read-out: Concentration at 90% Inhibition Pc
[13] = growth inhibition vs 2% DMSO control at 48 hours, read-out: Concentration at 90% Inhibition Pc
[14] = mycelial plugs, growth inhibition at 48 hours vs 2% DMSO control, read-out: Concentration at 90% Inhibition Rs
[15] = mycelial plugs, growth inhibition vs 2% DMSO control at 48 hours, read-out: Concentration at 90% Inhibition Rs
[16] = Table 3a, ATCC 6258, 3 replicates, MIC recorded at 48 h, read-out: MIC, C. krusei ATCC 6258
[17] = Table 3b (additional results), ATCC 6258, 3 replicates, MIC recorded at 48 h, read-out: MIC, C. krusei ATCC 6258
[18] = Botrtyis cinerea, growth inhibition at 48 hours vs 2% DMSO control, read-out: Concentration at 90% Inhibition Bc
[19] = Botrtyis cinerea, growth inhibition vs 2% DMSO control at 48 hours, read-out: Concentration at 90% Inhibition Bc
[20] = growth inhibition at 48 hours vs 2% DMSO control, read-out: Concentration at 90% Inhibition Fv
[21] = growth inhibition vs 2% DMSO control at 48 hours, read-out: Concentration at 90% Inhibition Fv
[22] = Septoria tritici, growth inhibition at 48 hours vs 2% DMSO control, read-out: Concentration at 90% Inhibition St
[23] = Septoria tritici, growth inhibition vs 2% DMSO control at 48 hours, read-out: Concentration at 90% Inhibition St
[24] = Fusarium moniliforme, growth inhibition at 48 hours vs 2% DMSO control
[25] = Fusarium moniliforme, growth inhibition vs 2% DMSO control at 48 hours

Sequence of human (hACC2) (O00763 whole entry): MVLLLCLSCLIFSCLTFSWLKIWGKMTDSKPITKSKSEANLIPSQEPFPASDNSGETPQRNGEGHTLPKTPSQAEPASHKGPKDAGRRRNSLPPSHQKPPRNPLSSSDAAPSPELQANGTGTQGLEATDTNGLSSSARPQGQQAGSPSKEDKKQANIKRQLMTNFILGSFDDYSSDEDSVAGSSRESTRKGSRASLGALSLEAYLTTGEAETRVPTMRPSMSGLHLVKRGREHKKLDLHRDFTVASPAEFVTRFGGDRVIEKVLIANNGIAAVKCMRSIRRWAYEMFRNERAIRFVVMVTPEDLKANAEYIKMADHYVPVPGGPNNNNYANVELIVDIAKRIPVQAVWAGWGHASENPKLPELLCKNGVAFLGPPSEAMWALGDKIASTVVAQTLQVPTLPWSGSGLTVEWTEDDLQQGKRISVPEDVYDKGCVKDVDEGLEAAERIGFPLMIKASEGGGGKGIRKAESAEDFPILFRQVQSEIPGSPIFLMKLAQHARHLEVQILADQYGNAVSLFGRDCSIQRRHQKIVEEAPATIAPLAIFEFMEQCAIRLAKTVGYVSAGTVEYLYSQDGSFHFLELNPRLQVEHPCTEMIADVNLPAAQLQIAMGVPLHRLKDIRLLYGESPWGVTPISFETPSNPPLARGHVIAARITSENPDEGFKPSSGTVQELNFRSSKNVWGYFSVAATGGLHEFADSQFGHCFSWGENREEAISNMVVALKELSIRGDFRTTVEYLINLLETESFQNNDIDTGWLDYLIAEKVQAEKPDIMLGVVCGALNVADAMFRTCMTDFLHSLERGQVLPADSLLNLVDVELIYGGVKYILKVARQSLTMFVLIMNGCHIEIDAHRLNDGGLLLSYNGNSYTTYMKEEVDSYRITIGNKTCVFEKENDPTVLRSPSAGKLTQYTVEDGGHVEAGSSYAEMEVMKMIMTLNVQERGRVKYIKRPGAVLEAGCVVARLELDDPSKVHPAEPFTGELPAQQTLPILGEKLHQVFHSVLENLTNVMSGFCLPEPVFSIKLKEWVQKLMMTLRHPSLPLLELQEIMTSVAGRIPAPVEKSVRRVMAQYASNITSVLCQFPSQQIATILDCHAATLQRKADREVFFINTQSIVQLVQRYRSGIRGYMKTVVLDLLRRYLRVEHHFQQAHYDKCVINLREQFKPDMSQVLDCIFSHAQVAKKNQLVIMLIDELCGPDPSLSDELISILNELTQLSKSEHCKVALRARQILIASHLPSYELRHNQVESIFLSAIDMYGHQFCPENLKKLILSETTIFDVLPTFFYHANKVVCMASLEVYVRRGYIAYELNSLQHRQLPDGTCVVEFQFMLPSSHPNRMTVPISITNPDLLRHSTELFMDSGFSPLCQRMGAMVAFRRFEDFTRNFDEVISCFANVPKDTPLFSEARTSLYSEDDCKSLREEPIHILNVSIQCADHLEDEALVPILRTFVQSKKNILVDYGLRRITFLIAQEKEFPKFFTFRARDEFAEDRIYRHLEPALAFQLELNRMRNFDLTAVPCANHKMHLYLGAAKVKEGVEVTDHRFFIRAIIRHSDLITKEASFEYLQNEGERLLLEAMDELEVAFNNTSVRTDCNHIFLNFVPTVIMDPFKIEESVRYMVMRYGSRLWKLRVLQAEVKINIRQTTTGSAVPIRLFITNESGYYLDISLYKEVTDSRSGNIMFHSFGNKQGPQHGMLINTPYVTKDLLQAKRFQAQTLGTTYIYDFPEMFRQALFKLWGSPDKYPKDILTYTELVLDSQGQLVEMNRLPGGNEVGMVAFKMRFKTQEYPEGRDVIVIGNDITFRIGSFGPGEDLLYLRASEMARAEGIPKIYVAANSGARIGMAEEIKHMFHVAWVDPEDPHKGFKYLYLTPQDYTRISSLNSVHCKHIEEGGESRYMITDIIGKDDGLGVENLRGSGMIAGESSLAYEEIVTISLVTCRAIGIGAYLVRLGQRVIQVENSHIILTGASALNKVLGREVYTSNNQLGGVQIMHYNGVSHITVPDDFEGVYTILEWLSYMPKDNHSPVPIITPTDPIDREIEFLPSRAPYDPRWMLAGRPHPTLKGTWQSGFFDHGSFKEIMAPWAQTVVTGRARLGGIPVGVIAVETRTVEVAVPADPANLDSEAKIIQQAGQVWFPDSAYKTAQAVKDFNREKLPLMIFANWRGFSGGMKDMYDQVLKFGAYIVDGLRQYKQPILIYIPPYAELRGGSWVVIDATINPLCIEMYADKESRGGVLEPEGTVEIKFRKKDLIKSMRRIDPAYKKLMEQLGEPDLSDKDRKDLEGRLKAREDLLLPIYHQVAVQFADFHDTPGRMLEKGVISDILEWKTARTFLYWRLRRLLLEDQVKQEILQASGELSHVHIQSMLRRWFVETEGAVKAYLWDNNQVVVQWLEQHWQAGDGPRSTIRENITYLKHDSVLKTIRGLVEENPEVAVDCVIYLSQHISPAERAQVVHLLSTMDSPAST

| MIC [1, 10] | MIC [1, 11] | IC50 ([4]; Table 2a) | IC50 ([4]; Table 2b, additional results) | MIC [5, 16] | MIC [5, 17] | SMILES | IC90 [2, 12] | IC90 [2, 13] | IC90 [3, 14] | IC90 [3, 15] | IC90 [6, 18] | IC90 [6, 19] | IC90 [7, 20] | IC90 [7, 21] | IC90 [8, 22] | IC90 [8, 23] | IC90 [9, 24] | IC90 [9, 25] | also measured |
| --- | --- | --- | --- | --- | --- | --- | --- | --- | --- | --- | --- | --- | --- | --- | --- | --- | --- | --- | --- |
| 1.1 to 2 µg/mL (≈ 1.93 to 3.52 µM) | 2.01 to 4 µg/mL (≈ 3.53 to 7.03 µM) | 1 to 5 nM | 1 to 5 nM | 0.25 to 1 µg/mL (≈ 0.44 to 1.76 µM) | 1.01 to 2 µg/mL (≈ 1.78 to 3.52 µM) | COc1ccccc1[C@H](Cn1c(=O)n(C(C)(C)C(N)=O)c(=O)c2c(C)c(-n3nccn3)sc21)OC1CCOCC1 [Compound I-14, (R)-2-(1-(2-(2-methoxyphenyl)-2-((tetrahydro-2H-pyran-4-yl)oxy)ethyl)-5-methyl-2,4-dioxo-6-(2H-1,2,3-triazol-2-yl)-1,4-dihydrothieno[2,3-d]pyrimidin-3(2H)-yl)-2-methylpropanamide] | > 50 µg/mL | > 50 µg/mL | 10 µg/mL (≈ 17.6 µM) | > 50 µg/mL | 2 µg/mL (≈ 3.52 µM) | 2 µg/mL (≈ 3.52 µM) | 10 µg/mL (≈ 17.6 µM) | > 50 µg/mL | > 50 µg/mL | > 50 µg/mL | 0.08 µg/mL (≈ 0.141 µM) | 0.08 µg/mL (≈ 0.141 µM) |  |
| 0.25 to 1 µg/mL (≈ 0.419 to 1.68 µM) | 0.25 to 1 µg/mL (≈ 0.419 to 1.68 µM) | 1 to 5 nM | 1 to 5 nM | 0.25 to 1 µg/mL (≈ 0.419 to 1.68 µM) | 0.25 to 1 µg/mL (≈ 0.419 to 1.68 µM) | CCNC(=O)C(C)(C)n1c(=O)c2c(C)c(-n3nccn3)sc2n(C[C@H](OC2CCOCC2)c2ccccc2OC)c1=O [Compound I-15, (R)—N-ethyl-2-(1-(2-(2-methoxyphenyl)-2-((tetrahydro-2H-pyran-4-yl)oxy)ethyl)-5-methyl-2,4-dioxo-6-(2H-1,2,3-triazol-2-yl)-1,4-dihydro-thieno[2,3-d]pyrimidin-3(2H)-yl)-2-methylpropanamide] | > 50 µg/mL | > 50 µg/mL | 10 µg/mL (≈ 16.8 µM) | > 50 µg/mL | 0.4 µg/mL (≈ 0.67 µM) | 0.4 µg/mL (≈ 0.67 µM) | 10 µg/mL (≈ 16.8 µM) | > 50 µg/mL | > 50 µg/mL | > 50 µg/mL | 0.08 µg/mL (≈ 0.134 µM) | 0.08 µg/mL (≈ 0.134 µM) |  |

| SMILES | MIC [1, 10] | MIC [1, 11] | IC50 ([4]; Table 2a) | IC50 ([4]; Table 2b, additional results) | MIC [5, 16] | MIC [5, 17] | IC90 [2, 12] | IC90 [2, 13] | IC90 [3, 14] | IC90 [3, 15] | IC90 [6, 18] | IC90 [6, 19] | IC90 [7, 20] | IC90 [7, 21] | IC90 [8, 22] | IC90 [8, 23] | IC90 [9, 24] | IC90 [9, 25] | also measured |
| --- | --- | --- | --- | --- | --- | --- | --- | --- | --- | --- | --- | --- | --- | --- | --- | --- | --- | --- | --- |
| COc1ccccc1[C@H](Cn1c(=O)n(C(C)(C)C(=O)N2CC(O)C2)c(=O)c2c(C)c(-n3nccn3)sc21)OC1CCOCC1 [Compound I-19, (R)-3-(1-(3-hydroxyazetidin-1-yl)-2-methyl-1-oxopropan-2-yl)-1-(2-(2-methoxyphenyl)-2-((tetrahydro-2H-pyran-4-yl)oxy)ethyl)-5-methyl-6-(2H-1,2,3-triazol-2-yl)thieno[2,3-d]pyrimidine-2,4(1H,3H)-dione] |  |  | 10 to 40 nM | 10 to 40 nM |  |  |  |  |  |  |  |  |  |  |  |  |  |  | MIC ([1]; read-out: MIC, C. parapsilosis ATCC 22019, Table 3a, 3 replicates, MIC recorded at 48 h): 2.1 to 4 µg/mL (≈ 3.36 to 6.4 µM); MIC ([1]; read-out: MIC, C. parapsilosis ATCC 22019, Table 3b (additional results), 3 replicates, MIC recorded at 48 h): 1.01 to 2 µg/mL (≈ 1.62 to 3.2 µM); IC90 ([2]; read-out: Concentration at 90% Inhibition Pc, Phytophthora capsici, growth inhibition at 48 hours vs 2% DMSO control): > 50 µg/mL; IC90 ([2]; read-out: Concentration at 90% Inhibition Pc, Phytophthora capsici, growth inhibition vs 2% DMSO control at 48 hours): > 50 µg/mL; IC90 ([3]; read-out: Concentration at 90% Inhibition Rs, Rhizoctonia solani, mycelial plugs, growth inhibition at 48 hours vs 2% DMSO control): 10 µg/mL (≈ 16 µM); IC90 ([3]; read-out: Concentration at 90% Inhibition Rs, Rhizoctonia solani, mycelial plugs, growth inhibition vs 2% DMSO control at 48 hours): > 50 µg/mL; MIC ([5]; read-out: MIC, C. krusei ATCC 6258, Table 3a, 3 replicates, MIC recorded at 48 h): 2.1 to 4 µg/mL (≈ 3.36 to 6.4 µM); MIC ([5]; read-out: MIC, C. krusei ATCC 6258, Table 3b (additional results), 3 replicates, MIC recorded at 48 h): 2.01 to 4 µg/mL (≈ 3.22 to 6.4 µM); IC90 ([6]; read-out: Concentration at 90% Inhibition Bc, Botrtyis cinerea, growth inhibition at 48 hours vs 2% DMSO control): 10 µg/mL (≈ 16 µM); IC90 ([6]; read-out: Concentration at 90% Inhibition Bc, Botrtyis cinerea, growth inhibition vs 2% DMSO control at 48 hours): > 50 µg/mL; IC90 ([7]; read-out: Concentration at 90% Inhibition Fv, Fusarium virguliforme, growth inhibition at 48 hours vs 2% DMSO control): 10 µg/mL (≈ 16 µM); IC90 ([7]; read-out: Concentration at 90% Inhibition Fv, Fusarium virguliforme, growth inhibition vs 2% DMSO control at 48 hours): > 50 µg/mL; IC90 ([8]; read-out: Concentration at 90% Inhibition St, Septoria tritici, growth inhibition at 48 hours vs 2% DMSO control): > 50 µg/mL; IC90 ([8]; read-out: Concentration at 90% Inhibition St, Septoria tritici, growth inhibition vs 2% DMSO control at 48 hours): > 50 µg/mL; Concentration at 90% Inhibition Fm [9, 24]: B (compound concentration of 2.0 ppm at 90% inhibition of fungal pathogens); IC90 [9]: 2 µg/mL (≈ 3.2 µM) |
